According to patent publication US6818407B2, “Anti-endotoxic antimicrobial cationic peptides and methods of use therfor” (priority 1998, dated 2004):
Ends that are not written are not given here.

Legend:
[1] = test system: Pseudomonas aeruginosa outer membrane barrier altered (Z61); type: cell-based; details: Mueller Hinton Broth
Experimental: (§1) The biological activity of the peptides can be determined by standard methods known to those of skill in the art, such as Aminimal inhibitory concentration (MIC)≅ assay described in the present examples, whereby the lowest concentration at which no change in OD is observed for a given period of time is recorded as MIC. Alternatively, Afractional inhibitory concentration (FIC)≅ is also useful for determination of synergy between the peptides of the invention, or the peptides in combination with known antibiotics. FICs are performed by checkerboard titrations of peptides in one dimension of a microtiter plate, and of antibiotics in the other dimension, for example. The FIC is calculated by looking at the impact of one antibiotic on the MIC of the other and vice versa. […] Preferably, an FIC of less than 0.5 is obtained for synergism. As used herein, FIC can be determined as follows: [formula]
(§2) These peptides varied in activity (Table 11), however, the C-terminally capped pleurocidin especially and its N-terminally capped lysine derivative had much better activities against a variety of bacteria including Vibrio anguillarum (Va), Aeromonas salmonicida (As), Staphylococcus epidermidis (C621), Salmonella typhimurium wild type (C587) and phoP phoQ mutant (C610), and Pseudomonas aeruginosa wild type (K799) and outer membrane barrier altered (Z61). The antimicrobial peptide CEME, a fusion peptide made from portions of an insect defensin ceropin A and the bee venom peptide melittin (Piers and Hancock, Mol. Microbiol., 12:951-8, 1994), as well as the known antibiotics polymyxin B and gentamicin were used as controls. Replacing the pleurocidin N-terminus with the dermaseptin N-terminus had no effect. Replacing pleurocidin N-terminus with the ceratoxin N-terminus reduced activity. […] Amidating the C-terminus improved antimicrobial activity. Replacing the pleurocidin C-terminus with the misgurin C-terminus had no effect.
(§3) Bacteria included Vibrio anguillarum (Va), Aeromonas salmonicida (As), Staphylococcus epidermidis (C621), Salmonella typhimurium wild type (C587) and phoP phoQ mutant (C6 10), and Pseudomonas aeruginosa wild type (K799) and outer membrane barrier altered (Z61).

[2] = test system: Vibrio anguillarum (Va); type: cell-based; details: Mueller Hinton Broth
Experimental: as §1, §2, §3

[3] = test system: Pseudomonas aeruginosa wild type (K799); type: cell-based; details: Mueller Hinton Broth
Experimental: as §1, §2, §3

[4] = test system: Salmonella typhimurium wild type (C587); type: cell-based; details: Mueller Hinton Broth
Experimental: as §1, §2, §3

[5] = test system: Aeromonas salmonicida (As); type: cell-based; details: Mueller Hinton Broth
Experimental: as §1, §2, §3

[6] = test system: Staphylococcus epidermidis (C621); type: cell-based; details: Mueller Hinton Broth
Experimental: as §1, §2, §3

[7] = test system: Salmonella typhimurium phoP phoQ mutant (C610); type: cell-based; details: Mueller Hinton Broth
Experimental: as §1, §2, §3

[8] = test system: mutant (Nal B, H744) of P. aeruginosa; test: microbe, parasite or virus in culture; type: cell-based; details: Pseudomonas aeruginosa, read-out: MIC B MIC of Cipro
Experimental: as §1
To test whether the peptides of the invention synergize with various antibiotics, the following method was employed. Fractional Inhibitory Concentration (FIC) was used to determine synergy of peptides combined with antibiotics (e.g., carbenicillin/ciprofloxacin) against Pseudomonas aeruginosa. The following methodology was followed:
(1) Determination of MIC of cationic peptides (MIC A):
100 μl Mueller Hinton broth (MHB) was added per well
12.5 μl of 10× test concentration peptide was added per well to get final peptide concentration of e.g., 128, 64, 32, . . . 0.025 μg/ml from row 1 to 11;
10 μl of 10^−4 dilution of overnight bacterial culture was added per well.
(2) Determination of MIC of Carbenicillin/Ciprofloxacin (MIC B):
100 μl MHB was added per well;
100 μl of 2× test concentration of antibiotic was added in the first well of the row, and doubling dilutions performed across the plate from column 1 to 11;
(3) Determination of MIC of antibiotics (B) when combined with peptides at concentration A:
100 μl Carbenicillin (512 μg/ml) or Ciprofloxacin (8 μg/ml) was added in each well of column 1; doubling dilutions were performed across the plate;
100 μl of the peptide was added in all wells of row 1, mixed, and 100 μl withdrawn and added to row 2, etc., creating a checkerboard titration.
10 μl of 10^−4 dilution of overnight culture was added per well;
plates were incubated at 37EC for 18-24 hours. Combination MIC values A and B were taken as the lowest concentration of drug that reduced bacterial growth by more than 50% in any given column.
(4) FIC index=FICA+FICB=(A)/MIC A+(B)/MIC B. An FIC index of approximately 0.5 or less indicates synergy; 1.0 reflects additivity; and >1.0 indicates antagonism.

[9] = test system: Pseudomonas aeruginosa strain M2; test: Protection of neutropenic CD-1 mice challenged with Pseudomonas aeruginosa; type: in vivo; set-up: Survival post bacterial challenge, surviving mice: reference not given here; details: for Survival (%) post bacterial challenge: PBS 8
Experimental: CD-1 mice were induced to be neutropenic via 3 intraperitoneal injections of cyclophosphamide ([…]) every another day. Immediately after the third administration of cyclophosphamide, the mice were challenged by intraperitoneal injection of Pseudomonas aeruginosa strain M2 (200-300 organisms/mouse). Cationic peptides (200 µg per mouse=8 mg/kg) in 100 µl buffered citrate were injected intraperitoneally at 30 min (single dose) or 30 min and 16 hrs (double dose) post bacterial challenge, respectively. The data were the average values of 2 individual experiments. PBS was used as a control. […] In general single dose protection studies gave better protection than double dose experiments.

Compound	MIC Z61 [1]	MIC Va [2]	MIC K799 [3]	MIC C587 [4]	MIC As [5]	MIC C621 [6]	MIC C610 [7]	MIC [8]	Survival post bacterial challenge, surviving mice ([9]; single dose (200 μg per mouse i.p. at 30 min), 16 hr)	Survival post bacterial challenge, surviving mice ([9]; single dose, 24 hr)	Survival post bacterial challenge, surviving mice ([9]; single dose, 41 hr)	Survival post bacterial challenge, surviving mice ([9]; single dose, 48 hr)	Survival post bacterial challenge, surviving mice ([9]; single dose, 64 hr)	Survival (%) post bacterial challenge ([9]; single dose, 64 hr)	Survival post bacterial challenge, surviving mice ([9]; single dose, 72 hr)	Survival (%) post bacterial challenge ([9]; single dose, 72 hr)	Survival post bacterial challenge, surviving mice ([9]; single dose, 96 hr)	Survival (%) post bacterial challenge ([9]; single dose, 96 hr)
KGWGSFFKKAAHVGKHVGKAALTHYL [Peptide P-1]	8 µg/mL	16 µg/mL	32 µg/mL	16 µg/mL	2 µg/mL	64 µg/mL	<0.5 µg/mL	–	–	–	–	–	–	–	–	–	–	–
O=C(O)c1cn(C2CC2)c2cc(N3CCNCC3)c(F)cc2c1=O [Cipro, ciprofloxacin, reference compound]	–	–	–	–	–	–	–	0.25 µg/mL	–	–	–	–	–	–	–	–	–	–
KWKSFIKKLTSAAKKVVTTAKPLISS (H-KWKSFIKKLTSAAKKVVTTAKPLISS-OH) [CP26, reference compound]	–	–	–	–	–	–	–	–	8	8	6	4	3	37%	3	37%	3	37%
SIGSAFKKAAHVGKHVGKAALGAAARRRK [CER-M]	64 µg/mL	>64 µg/mL	>64 µg/mL	>64 µg/mL	32 µg/mL	>64 µg/mL	8 µg/mL	–	–	–	–	–	–	–	–	–	–	–
polymyxin B [reference compound]	<0.5 µg/mL	16 µg/mL	<0.5 µg/mL	<0.5 µg/mL	<0.5 µg/mL	16 µg/mL	<0.5 µg/mL	–	–	–	–	–	–	–	–	–	–	–
